Measured values from patent EP0194793A2, “9-Acyl tylosin derivatives” (Omura, Satoshi, priority 1985, dated 1986).
In brackets after ≈: the same amount, converted by molar mass. Like-named read-outs stand apart in the source and are kept apart here.

How the values were obtained:
[1] = test system: Klebsiella pneumoniae KB13(PCI 602); assay: Minimum inhibitory concentration, nutrient agar dilution; format: cell-based; conditions: for MIC: read-out: Minimum Inhibitory Concentrations
Description: (§1) Experiment 1: Minimum Inhibitory Concentration (µg/ml)
(§2) The tylosin derivatives obtained in Examples 1 through 9 were tested for their minimum inhibitory concentrations against gram-positive and gram-negative bacteria. The tests were conducted in conventional manner by inoculating varying concentrations of the test sample on a nutrient agar test medium and incubating at 37°C for 18-20 hours. The concentrations of the test samples inhibiting the bacteria growth were measured in µg per ml as a minimum inhibitory concentration.

[2] = test system: Bacillus subtilis KB-143(IFO 3001); assay: as above; format: cell-based
Description: as §1, §2

[3] = test system: Escherichia coli KB213 (NIHJ); assay: as above; format: cell-based; conditions: 37°C, 18-20 hours; for MIC: read-out: Minimum Inhibitory Concentrations
Description: as §1, §2

[4] = test system: Micrococcus luteus KB212 (ATCC 9341); assay: as above; format: cell-based
Description: as §1, §2

[5] = test system: Staphylococcus aureus KB-210 (ATC 65380); assay: as above; format: cell-based; conditions: for MIC: read-out: Minimum Inhibitory Concentrations
Description: as §1, §2

S. pyrogenes C203 = assay: In vivo activity in infected mice
Description: Experiment 2: In vivo Activity
The compounds obtained in Examples 2 and 4 were separately administered subcutaneously or orally to mice infected with S. pyrogenes C203. The in vivo activity was measured as ED50 (mg/kg x 2).

[6] = Klebsiella pneumoniae KB13(PCI 602), nutrient agar, 37°C, 18-20 hours
[7] = Bacillus subtilis KB-143(IFO 3001), nutrient agar, 37°C, 18-20 hours
[8] = Micrococcus luteus KB212 (ATCC 9341), nutrient agar, 37°C, 18-20 hours
[9] = Staphylococcus aureus KB-210 (ATC 65380), nutrient agar, 37°C, 18-20 hours

Row | Molecule | Minimum Inhibitory Concentrations [1, 6] [µg/mL] | Minimum Inhibitory Concentrations [2, 7] [µg/mL] | Minimum Inhibitory Concentrations [3] [µg/mL] | Minimum Inhibitory Concentrations [4, 8] [µg/mL] | Minimum Inhibitory Concentrations [5, 9] [µg/mL] | other results
1 | 9-0-Propionyl-9-dihydrotylosin [Example 2] | >100 | 0.2 | >100 | <0.1 | 0.78 | ED50 (S. pyrogenes C203; Oral, mice infected with S. pyrogenes C203): 12.5 mg/kg x 2; ED50 (S. pyrogenes C203; Subcutaneous, mice infected with S. pyrogenes C203): 2.5 mg/kg x 2
2 | 9-0-Butyryl-9-dihydrotylosin [Example 3] | 100 | 0.4 | 100 | <0.1 | 1.56 | 
3 | 9-0-Butyryl-9-dihydrodemycarosyltylosin [Example 7] | >50 | 1.56 | >50 | 0.2 | 1.56 | 
4 | CC[C@H]1OC(=O)C[C@@H](O)[C@H](C)[C@@H](O[C@@H]2O[C@H](C)[C@@H](O[C@H]3C[C@@](C)(O)[C@@H](O)[C@H](C)O3)[C@H](N(C)C)[C@H]2O)[C@@H](CC=O)C[C@@H](C)C(=O)/C=C/C(C)=C/[C@@H]1CO[C@@H]1O[C@H](C)[C@@H](O)[C@@H](OC)[C@H]1OC [Tyl, Tylosin] |  |  |  |  |  | MIC ([1]; Klebsiella pneumoniae): > 100 mg/L; MIC ([2]; Bacillus subtilis, IFO3001, read-out: Minimum Inhibitory Concentrations): 0.78 mg/L (≈ 0.851 µM); MIC [3]: > 100 mg/L; MIC ([4]; Micrococcus luteus, ATCC9341, read-out: Minimum Inhibitory Concentrations): 0.2 mg/L (≈ 0.218 µM); MIC ([5]; Staphylococcus aureus): 1.56 mg/L (≈ 1.7 µM); ED50 (S. pyrogenes C203; Mus musculus, po): 50 mg/kg; ED50 (S. pyrogenes C203; Mus musculus, sc): 1 mg/kg
5 | 9-0-Propionyl-9-dihydrodemycarosyltylosin [Example 6] | >100 | 1.56 | >100 | 0.2 | 1.56 | 
6 | CCC1OC(=O)CC(O)C(C)C(OC2OC(C)C(O)C(N(C)C)C2O)C(CC=O)CC(C)C(=O)C=CC(C)=CC1COC1OC(C)C(O)C(OC)C1OC (stereo not drawn) [Detyl, Demycarosyltylosin, reference compound] |  |  |  |  |  | MIC [1, 6]: 100 mg/L (≈ 130 µM); MIC ([2]; IFO3001, Bacillus subtilis KB-143(IFO 3001), nutrient agar, 37°C, 18-20 hours, read-out: Minimum Inhibitory Concentrations): 3.12 mg/L (≈ 4.04 µM); MIC [3]: > 100 mg/L; MIC ([4]; ATCC9341, Micrococcus luteus KB212 (ATCC 9341), nutrient agar, 37°C, 18-20 hours, read-out: Minimum Inhibitory Concentrations): 0.2 mg/L (≈ 0.259 µM); MIC [5, 9]: 3.12 mg/L (≈ 4.04 µM)
7 | 9-0-Acetyl-9-dihydrotylosin [Example 1] | 100 | 0.2 | >100 | <0.1 | 1.56 | 
8 | 9-0-Acetyl-9-dihydrodemycarosyltylosin [Example 5] | >50 | 1.56 | >50 | 0.2 | 1.56 | 
9 | 9-0-Benzoyl-9-dihydrotylosin [Example 4] | >100 | 0.2 | >100 | <0.1 | 0.78 | 
10 | 9-0-Benzoyl-9-dihydrodemycarosyltylosin [Example 8] | >100 | 1.56 | >100 | 0.2 | 1.56 | 
